This note sets out measurements from ChEMBL document CHEMBL1153128, “Synthesis of a hydrolytically stable, fluorescent-labeled ATP analog as a tool for probing adenylyl cyclases” (Bioorg Med Chem Lett, 2010).

The assay deals with T1, Calmodulin-sensitive adenylate cyclase (Bacillus anthracis, UniProt P40136).
T1 sequence (P40136 whole entry): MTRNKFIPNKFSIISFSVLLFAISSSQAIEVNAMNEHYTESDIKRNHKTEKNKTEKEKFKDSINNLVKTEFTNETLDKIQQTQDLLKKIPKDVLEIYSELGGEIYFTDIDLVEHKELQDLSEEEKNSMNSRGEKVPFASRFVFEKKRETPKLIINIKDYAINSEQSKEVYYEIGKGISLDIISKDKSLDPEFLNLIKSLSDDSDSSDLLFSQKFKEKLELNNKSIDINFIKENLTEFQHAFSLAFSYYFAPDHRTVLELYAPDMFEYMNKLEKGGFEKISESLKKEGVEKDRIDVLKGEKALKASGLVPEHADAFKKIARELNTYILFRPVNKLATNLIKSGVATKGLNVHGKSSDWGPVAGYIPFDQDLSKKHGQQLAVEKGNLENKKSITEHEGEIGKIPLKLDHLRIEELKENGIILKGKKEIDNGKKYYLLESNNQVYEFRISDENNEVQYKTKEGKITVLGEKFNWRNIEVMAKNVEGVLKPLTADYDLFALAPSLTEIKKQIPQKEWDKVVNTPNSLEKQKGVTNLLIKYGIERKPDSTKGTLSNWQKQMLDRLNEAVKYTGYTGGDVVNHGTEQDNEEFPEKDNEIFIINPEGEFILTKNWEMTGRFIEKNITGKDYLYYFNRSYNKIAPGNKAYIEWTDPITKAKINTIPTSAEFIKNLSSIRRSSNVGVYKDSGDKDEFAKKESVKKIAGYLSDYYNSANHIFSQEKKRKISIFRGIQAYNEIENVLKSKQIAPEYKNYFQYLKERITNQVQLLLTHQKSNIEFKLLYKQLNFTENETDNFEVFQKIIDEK
Put plainly: Inhibition of Bacillus anthracis edema factor catalytic domain by radiometric assay.

As a reminder, the Ki is a measure of affinity in units of concentration, obtained from inhibition or displacement. Low values mean higher affinity, high ones lower affinity. The compound `CNc1ccccc1C(=O)O[C@H]1[C@@H](O)[C@H](n2cnc3c(N)ncnc32)O[C@@H]1CO[P@@](=O)(O)O[P@](=O)(O)OP(=O)(O)O` had an inhibitory constant (Ki) of 980 nM. In other words, the sub-micromolar range.

As to `CNc1ccccc1C(=O)O[C@@H]1[C@H](O)[C@@H](COP(=O)(O)OP(=O)(O)OP(=O)(O)O)O[C@H]1n1ccc(N)nc1=O`, the Ki amounted to 100 nM.

`CNc1ccccc1C(=O)N[C@@H]1[C@H](O)[C@@H](COP(=O)(O)OP(=O)(O)C(Cl)(Cl)P(=O)(O)O)O[C@H]1n1cnc2c(N)ncnc21`: the affinity, expressed as Ki, was 8980 nM.
